These results are taken from patent publication US6924288B2, “Enantiomerically pure opioid diarylmethylpiperzine and methods of using same” (priority 2001, dated 2005).

Structures are written as SMILES.

For one data set, the target named is T1, μ opioid receptor (Rattus norvegicus, UniProt P33535).
T1 construct: tissue Pel-Freeze Biological Inc. (Rogers, Ark.); host or cells: rat whole brain membranes
Kind of data set: Radioligand binding, [3H]DAMGO competition, rat brain membranes. The conditions noted are these: rat brain membranes, [3H]DAMGO; read-out: Rat Brain Membrane K1 (nM) μ. The procedure: (§1) Two stereoisomerically related racemic mixtures and inclusive enantiomers were evaluated for in vitro opioid receptor affinity in rat brain membranes (μ and δ opioid) and guinea pig cerebellum (κ opioid receptor). Membranes for radioligand binding were prepared from either rat whole brain or guinea pig cerebellum, supplied by Pel-Freeze Biological Inc. (Rogers, Ark.). Tissues were homogenized in 50 mM TRIS (Tris[hydrooxymethyl]aminomethane) buffer (pH 7.4) containing 50 ug/ml soybean trypsin inhibitor, 1 mM EDTA (Ethylenediaminetetraacetic acid), and 100 μM PMSF (Phenylmethylsulfonyl fluoride). The homogenized brain tissues were centrifuged at 500×g for 30 minutes (4° C.) to remove large debris. The supernatant was polytronically sonicated for 10 seconds (P.E. setting of 2, 4° C.). Sucrose solution was then added to a final concentration of 0.35 M using a 10 mM TRIS-Sucrose buffer (pH 7.4) and the brain membranes were then centrifuged at 40,000×g for 30 minutes (4° C.). The membrane pellets were then washed twice in 10 mM TRIS buffer (pH 7.4) containing 50 μg/ml soybean trypsin inhibitor, 1 mM EDTA, and 100 μM PMSF.
(§2) Radioligand binding assays were performed in 10 mM TRIS buffer (pH 7.4) containing 50 μg/ml soybean trypsin inhibitor, 1 mM EDTA, 5 mM MgCl2, and 100 μM PMSF. Tritium-labeled DAMGO (μ), Deltorphin II (δ), or U69593 (κ) purchased from New England Nuclear were used as ligands in competitive experiments (2-3×10^−10 M final concentrations) with non-specific binding defined by 0.5×10^−6 M Naloxone (purchased from SIGMA Chemical Co.). All binding assays were run at room temperature for 90 minutes and then terminated by rapid filtration on GF/C glass fiber filters (Whatman, Hillsboro, Oreg.) with 50 mM TRIS buffer (4° C., pH 7.4) employing a Brandel Semi-automatic Cell Harvester (Model M48, Brandel, Gaithersburg, Md.). The filters were washed twice with 50 mM TRIS buffer (4° C., pH 7.4) and the filters were placed in liquid scintillation cocktail and the bound radioactivity counted on a Beckman LS 6500 scintillation counter. The potency of the compounds in inhibiting the binding of radiolabelled DAMGO (μ), Deltorphin II (δ), or U69593 (κ) was determined from full concentration-effect curves. With the computer program Prism (GraphPad Software Inc., San Diego, Calif.) the IC50 values were determined using a one-site nonlinear regression analysis of the radioligand binding data. The IC50 values were then converted to Ki values using the Cheng-Prusoff equation. (Cheng Y and Prusoff W H (1973) Relationship between the inhibition constant (K1) and the concentration of inhibitor which causes 50 percent inhibition (I50) of a enzymatic reaction. Biochem Pharm 22:3099-3108.)

The next data set deals with T2, δ opioid receptor (Rattus norvegicus, UniProt P33533).
T2 construct: tissue Pel-Freeze Biological Inc. (Rogers, Ark.); host or cells: rat whole brain membranes
Kind of data set: Radioligand binding, [3H]Deltorphin II competition, rat brain membranes. The conditions noted are these: read-out: Rat Brain Membrane K1 (nM) δ. The procedure:
as §1, §2

In a further data set the target is T3, κ opioid receptor (Cavia porcellus, UniProt P41144).
T3 construct: tissue Pel-Freeze Biological Inc. (Rogers, Ark.); host or cells: guinea pig cerebellum membranes
Put plainly: Radioligand binding, [3H]U69593 competition, guinea pig cerebellum membranes. The conditions noted are these: read-out: Guinea Pig Brain Membrane K1 (nM) κ. The procedure: as §1, §2

Data set [1] has as its target T4, Mu receptor, mouse vas deferens (Mus musculus, UniProt P42866).
T4 construct: Mouse vasa deferentia (MVD), CD-1 strain, Harlan, Raleigh, N.C.) were removed from mice; tissue Harlan, Raleigh, N.C; (animals); host or cells: mouse vas deferens, CD-1 strain
Kind of data set: Mouse vas deferens, inhibition of electrically induced contractions, mu (with TIPP and nor-BNI). It counts as cell-based. The note with it: in presence of 3 μM TIPP and 15 nM nor-BNI; read-out: Mouse Vas Deferens ED50 (nM) μ.

For data set [2], the target named is T5, Delta receptor, mouse vas deferens (Mus musculus, UniProt P32300).
T5 construct: Mouse vasa deferentia (MVD), CD-1 strain, Harlan, Raleigh, N.C.) were removed from mice; tissue Harlan, Raleigh, N.C; (animals); host or cells: mouse vas deferens, CD-1 strain
Kind of data set: Mouse vas deferens, inhibition of electrically induced contractions, delta. In kind it is cell-based. The note with it: read-out: Mouse Vas Deferens ED50 (nM) δ. The procedure: The compound of formula (I) and compounds 1, 3, 4, 5 and 6 as identified above, were evaluated for in vitro opioid receptor activity in various receptor systems, including mouse vas deferens (Mouse Vas Deferens ED50), and guinea pig ileum (Guinea Pig Ileum ED50). The assay procedures used for such determinations of receptor activity are set out below.
In vitro bioassays: Mouse vasa deferentia (MVD), CD-1 strain, Harlan, Raleigh, N.C.) were removed from mice and suspended between platinum electrodes with 0.5 g of tension in organ bath chambers containing a modified Mg^++ free Krebs buffer of the following composition (millimolar): NaCl, 117.5; KCl, 4.75; CaCl2, 2.6; KH2PO4, 1.20; NaHCO3, 24.5; and glucose, 11. The buffer was saturated with 95% O2/5% CO2 and kept at 37° C. Tissues were stimulated at supramaximal voltage with 10-Hz pulse trains for 400-msec.; train interval 10 seconds; and 1.0 msec pulse duration at maximal voltage. Delta receptor activity was determined by adding appropriate concentrations of test compound to organ baths and allowing a maximal response before addition of the next higher concentration.
The ED50 values were extrapolated from curves showing the dose concentration plotted against the response (J. A. H. Lord, A. A. Waterfield, J. Hughes, H. W. Kosterlitz, Nature 267, 495, (1977)).

Data set [3] relates to rats. Kind of data set: Tail pinch test for analgesia in rats. In kind it is in vivo. The conditions noted are these: rat; for Analgesia (delay of response to tail pinch): 0.30 mg/kg i.v., cutoff 20 sec; for ED50: intravenous, 20 sec cutoff; for ED50 / Analgesic effect in words: tail pinch; for Analgesic effect in words: i.v., FIGS. 1-6. The procedure: (§3) Analgesia was assayed in rats using the tail pinch test with simultaneous monitoring of capillary blood gases (pCO2). During this testing period respiratory depression values were also obtained. Male rats (Wistar Hannover 200-300 g) were anesthetized with 2% isoflurane (J. A. Webster, Inc., Sterling, Mass. The femoral artery was cannulated with PE50 tubing for blood sampling. The external jugular vein was also cannulated with Silastic tubing for drug injection. After surgery, anesthetic gases were removed and the rat was allowed to rest in a plastic restrainer for 60 minutes to establish baseline values of blood gases.
(§4) The compounds 1-6 were administered intravenous. Nociceptive response and respiratory values were obtained for a 1-2 hour period. The femoral artery cannulation was used to draw arterial blood into a syringe pre-wetted with heparin. Samples were then analyzed with a blood gas analyzer (Ph/Gas Analyzer Synthesis 25 Model, Instrumentation Laboratory) to assess respiratory depression effects. The volume of blood taken each time was 0.15 cc. The syringes were capped immediately and the blood gases analyzed within 5 minutes. The blood exposed to air at the tip of the syringe was expelled. The blood was mixed by gentle inversion and an aliquots of 0.10 cc was injected into the blood gas analyzer.
An artery clamp was placed on the tail (one inch from the tip of the tail) for a short duration until an escape response occurred (i.e. tail-flick or vocalization). The escape response latency was recorded by means of a stopwatch. A cutoff time of 20 sec. was used to prevent unnecessary tissue damage. […] The elapsed time to elicit a pain response was recorded as the tail pinch latency in seconds. Blood gases were monitored at approximately the same time points as the tail pinch test.
(§5) The ED50 values for analgesia potency and respiratory depression were determined to calculate the safety or therapeutic ratio, which is defined as the respiratory depression ED50 divided by analgesia ED50.

Data set [4] is described as follows: Respiratory depression by blood gas (pCO2) monitoring in rats. In kind it is in vivo. The note with it: male, Wistar Hannover, in vivo; rat, intravenous. The procedure: as §3, §4
(§6) The gas analyzer was well maintained and operated. Calibrations (low, normal and high) were done at the beginning of every day of testing. The sample lines, co-oximeter and the blood gas electrode were cleaned regularly at the end of every day of testing. Hematocrit calibration (high and low) was scheduled on a weekly basis and tubing, sample and pinch valve were replaced on a monthly basis.
as §5

For data set [5], the system named is rats. The data set is described as above. The note with it: rat; for Respiratory Depression % Units Baseline pCO2: 0.30 mg/kg i.v.; for Safety Ratio (respiratory depression ED50 divided by analgesia ED50): intravenous. In kind it is in vivo. On the procedure: as §3, §4, §6, §5

As a reminder, the ED50 is the midpoint of the dose-response relation. In the case of `C=CCN1C[C@@H](C)N([C@@H](c2ccsc2)c2cccc(O)c2)C[C@@H]1C` (racemic) [Compound 1, (±)3-((R*)-((2R*,5S*)-4-allyl-2,5-dimethyl-1-piperazinyl)(3-thienyl)methyl)phenol], the Ki turned out to be 0.36 nM on μ opioid receptor, 1.29 nM on δ opioid receptor and 1.67 nM on κ opioid receptor. Further, the EC50 amounted to 881 nM in data set [1] and 30 nM in data set [2]. Moreover, the “Analgesia (delay of response to tail pinch)” value in the data set on rats [3] (4 min.) worked out at 19.5 s; with rats [3] (8 min.), 10.5 s; in the data set on rats [3] (32 min.), 1 s. In addition, the results for the ED50 (in the data set with rats [3]; in data set [4]) were 0.21 mg/kg and 0.98 mg/kg, respectively. For the same molecule, the “Respiratory Depression % Units Baseline pCO2” value in the data set with rats [5] (4 min.) is reported as 21%; with rats [5] (8 min.), 25%; in the data set with rats [5] (32 min.) it was 7%. The “Safety Ratio (respiratory depression ED50 divided by analgesia ED50)” value in the data set on rats [5] was 4.7.

`C=CCN1C[C@H](C)N([C@@H](c2ccsc2)c2cccc(O)c2)C[C@H]1C` (racemic) [Compound 4, (±)3-((R*)-((2S*,5R*)-4-allyl-2,5-dimethyl-1-piperazinyl)(3-thienyl)methyl)phenol]: the Ki on μ opioid receptor worked out at 0.18 nM; at δ opioid receptor it was 14.9 nM; at κ opioid receptor it was 2.34 nM. Also, the values for the EC50 in data set [1] and in data set [2] were 170 nM and 58 nM, respectively. Moreover, the “Analgesia (delay of response to tail pinch)” value in the data set with rats [3] (4 min.) was determined as 20 s; in the data set with rats [3] (8 min.), 20 s; in the data set with rats [3] (32 min.) it was 10 s. Moreover, the results for the ED50 (in the data set with rats [3]; in data set [4]) were 0.05 mg/kg and 0.12 mg/kg, respectively. Besides, the figures for the “Respiratory Depression % Units Baseline pCO2” value in the data set with rats [5] (4 min.), with rats [5] (8 min.) and in the data set on rats [5] (32 min.) were 117%, 91% and 43%, respectively. The “Mortality due to respiratory depression” value in the data set on rats [5] (i.v.) is given as “several of the test subjects died”. Besides, in the data set with rats [5], the “Safety Ratio (respiratory depression ED50 divided by analgesia ED50)” value turned out to be 2.4.

In the case of `C=CCN1C[C@@H](C)N([C@@H](c2ccsc2)c2cccc(O)c2)C[C@@H]1C` (relative stereo) [Compound 1, (±)3-((R*)-((2R*,5S*)-4-allyl-2,5-dimethyl-1-piperazinyl)(3-thienyl)methyl)phenol], in the data set with rats [3], the “Analgesic effect in words” value was “only limited analgesia for a short time”.

As for `C=CCN1C[C@@H](C)N([C@@H](c2ccsc2)c2cccc(O)c2)C[C@@H]1C` [Compound 3, (+)3-((R)-((2R,5S)-4-allyl-2,5-dimethyl-1-piperazinyl)(3-thienyl)methyl)phenol], the Ki at μ opioid receptor is 658 nM; at δ opioid receptor it was 744 nM; on κ opioid receptor, 100 nM. Also, the EC50 in data set [1] and in data set [2] was greater than 1000 nM throughout. The “Analgesia (delay of response to tail pinch)” value with rats [3] (4 min.), in the data set on rats [3] (8 min.) and with rats [3] (32 min.) was 0 s throughout. Moreover, the “Analgesic effect in words” value in the data set with rats [3] is on record as “no measurable analgesic effect”. Further, the ED50 (with rats [3]; in data set [4]) was greater than 6 mg/kg each time. Besides, the “Respiratory Depression % Units Baseline pCO2” value in the data set on rats [5] (4 min.), with rats [5] (8 min.) and in the data set with rats [5] (32 min.) was 0% each time. The “Effect on blood pCO2 levels in words” value with rats [5] (i.v.) is “no effect on blood pCO2 levels”.

Turning to `C=CCN1C[C@H](C)N([C@@H](c2ccsc2)c2cccc(O)c2)C[C@H]1C` [Compound 5, (+)-3-((R)-((2S,5R)-4-allyl-2,5-dimethyl-1-piperazinyl)(3-thienyl)methyl)phenol], the Ki on μ opioid receptor was found to be 0.75 nM; at δ opioid receptor, 113 nM; on κ opioid receptor, 1.73 nM. Besides, the results for the EC50 in data set [1] and in data set [2] were 79.3 nM and 1.3 nM, respectively. The “Analgesia (delay of response to tail pinch)” value with rats [3] (4 min.), in the data set with rats [3] (8 min.) and with rats [3] (32 min.) was 20 s each time. Also, the ED50 was determined as 0.03 mg/kg with rats [3] and 0.067 mg/kg in data set [4]. In addition, the “Respiratory Depression % Units Baseline pCO2” value in the data set with rats [5] (4 min.) stood at 120%; in the data set with rats [5] (8 min.), 78%; with rats [5] (32 min.) it was 45%. Besides, the “Mortality due to respiratory depression” value in the data set on rats [5] (i.v.) is “several of the test subjects died”. Besides, the “Safety Ratio (respiratory depression ED50 divided by analgesia ED50)” value in the data set with rats [5] is reported as 2.2.
